Molecular target: T1, Xanthine Oxidase (Bos taurus, UniProt P80457)
T1 construct: Xanthine Oxidase was obtained from Bovine butter milk; from tissue; host or cells: bovine buttermilk
Assay: Xanthine oxidase inhibition assay (uric acid quantitated by spectrophotometer, 165 μM xanthine substrate)
Assay type: biochemical, Bovine
Details: Allopurinol comparison; concentration not given
Source text: All other results are expressed in terms of that assay's quantitation method. For primary assays, only the lowest concentration with a significant response judged by the assays' criteria, is shown in this summary.
Methods employed in this study were adapted from the scientific literature to maximize reliability and reproducibility.

T1 sequence (P80457 whole entry): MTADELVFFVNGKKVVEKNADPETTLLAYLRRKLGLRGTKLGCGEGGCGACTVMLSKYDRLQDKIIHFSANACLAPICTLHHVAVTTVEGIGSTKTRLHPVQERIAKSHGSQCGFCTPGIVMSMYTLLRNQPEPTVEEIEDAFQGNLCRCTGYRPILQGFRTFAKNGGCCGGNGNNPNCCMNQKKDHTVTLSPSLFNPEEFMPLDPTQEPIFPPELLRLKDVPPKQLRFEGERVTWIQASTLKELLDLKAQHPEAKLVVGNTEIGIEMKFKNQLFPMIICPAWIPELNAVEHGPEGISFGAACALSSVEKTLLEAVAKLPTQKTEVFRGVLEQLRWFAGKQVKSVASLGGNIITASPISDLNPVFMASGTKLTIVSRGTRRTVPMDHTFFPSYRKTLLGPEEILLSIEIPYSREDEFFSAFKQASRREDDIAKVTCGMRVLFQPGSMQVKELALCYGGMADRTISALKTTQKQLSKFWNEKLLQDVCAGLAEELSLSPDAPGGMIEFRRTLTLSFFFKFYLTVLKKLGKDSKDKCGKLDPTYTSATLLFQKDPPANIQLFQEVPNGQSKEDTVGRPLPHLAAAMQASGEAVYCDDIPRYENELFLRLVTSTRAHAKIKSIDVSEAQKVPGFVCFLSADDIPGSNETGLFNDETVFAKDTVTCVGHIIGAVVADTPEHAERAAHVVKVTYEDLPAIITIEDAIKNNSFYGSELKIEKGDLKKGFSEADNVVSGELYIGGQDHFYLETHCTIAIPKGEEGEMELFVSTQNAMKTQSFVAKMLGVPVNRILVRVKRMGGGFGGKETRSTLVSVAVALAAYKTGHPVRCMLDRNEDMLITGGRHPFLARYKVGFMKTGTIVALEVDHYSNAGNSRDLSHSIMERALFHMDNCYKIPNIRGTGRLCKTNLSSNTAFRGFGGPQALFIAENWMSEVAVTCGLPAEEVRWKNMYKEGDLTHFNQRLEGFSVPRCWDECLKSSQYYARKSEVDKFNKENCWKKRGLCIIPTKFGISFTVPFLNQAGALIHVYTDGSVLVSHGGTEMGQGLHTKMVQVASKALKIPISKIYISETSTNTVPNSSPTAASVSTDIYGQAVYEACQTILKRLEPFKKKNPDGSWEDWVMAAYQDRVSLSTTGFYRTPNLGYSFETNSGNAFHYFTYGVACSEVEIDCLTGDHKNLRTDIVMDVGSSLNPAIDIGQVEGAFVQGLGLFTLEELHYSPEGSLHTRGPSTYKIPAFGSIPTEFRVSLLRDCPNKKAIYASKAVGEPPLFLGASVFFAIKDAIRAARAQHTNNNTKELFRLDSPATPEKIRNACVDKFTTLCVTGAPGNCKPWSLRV

For Oc1ncnc2[nH]ncc12 [Allopurinol], the “percent inhibition of xanthine oxidase” value was “approximately 90%”.

Source: patent US20060141076A1, “Morinda citrifolia based compositions and methods for inhibiting xanthine oxidase” (priority 2004, published 2006)
